Tests used:
[1] = test system: A549 lung adenocarcinoma cells; assay: A549 proliferation assay (Cell Titer Glo); type: cell-based; conditions: 7 days with compound, cell viability by Cell Titer Glo (ATP)
Method: A549 lung adenocarcinoma cells (American Type Culture Collection) were maintained in DMEM growth media (Life Technologies) supplemented with 10% v/v heat inactivated fetal bovine serum (Sigma) and cultured at 37° C., 5% CO2. Exponentially growing A549 cells were plated in 96-well black tissue culture treated plates (Corning) at a density of […] in a volume of 100 μl culture media and allowed to adhere overnight at 37° C., 5% CO2. The following day, compound plates were prepared by making nine-point 3.3-fold dilutions in DMSO with a top concentration of 10 mM. Compounds were further diluted in culture media and 11 μl was added to the cells (final top assay concentration was 10 μM and DMSO was 0.2%). Cells were incubated with compound at 37° C., 5% CO2 for 7 days with media and compound replacement on day 4. Cell viability was assayed on Day 7 by adding 100 μl Cell Titer Glo (Promega) reagent to the plate to measure the amount of ATP present in the cells. Luminescence was read using the Envision 2104 Multilabel Reader (Perkin Elmer). The 50% inhibitory concentration (IC50) was determined using a 4-parameter fit model normalized to the DMSO control in dose response.

[2] = molecular target: PRMT5/MEP50 protein complex (Homo sapiens (Human), UniProt O14744); assay: PRMT5 biochemical assay (3H-SAM methylation of H4(1-21) peptide, filter plate scintillation); conditions: 10 nM PRMT5/MEP50 complex, 200 nM H4(1-21) peptide, 1 uM SAM, 25 minute incubation at room temperature
PRMT5/MEP50 protein complex, sequence (O14744 other isoform, or with tags, fused parts or gaps): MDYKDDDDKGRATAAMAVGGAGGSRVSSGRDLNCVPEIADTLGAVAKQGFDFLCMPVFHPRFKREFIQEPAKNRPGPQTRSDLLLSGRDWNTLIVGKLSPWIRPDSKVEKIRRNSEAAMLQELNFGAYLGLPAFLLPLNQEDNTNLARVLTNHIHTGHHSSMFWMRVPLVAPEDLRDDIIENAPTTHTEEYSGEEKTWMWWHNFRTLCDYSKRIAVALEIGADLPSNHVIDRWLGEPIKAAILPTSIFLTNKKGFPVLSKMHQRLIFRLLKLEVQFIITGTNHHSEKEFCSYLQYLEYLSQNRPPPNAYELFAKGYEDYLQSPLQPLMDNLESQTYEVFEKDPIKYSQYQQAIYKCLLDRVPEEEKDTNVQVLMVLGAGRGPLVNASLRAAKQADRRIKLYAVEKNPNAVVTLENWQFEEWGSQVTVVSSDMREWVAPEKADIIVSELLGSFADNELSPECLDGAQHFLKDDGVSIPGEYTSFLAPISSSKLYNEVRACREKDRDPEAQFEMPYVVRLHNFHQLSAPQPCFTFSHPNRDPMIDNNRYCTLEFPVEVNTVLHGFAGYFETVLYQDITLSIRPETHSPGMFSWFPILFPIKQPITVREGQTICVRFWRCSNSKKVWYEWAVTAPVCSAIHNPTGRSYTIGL
PRMT5/MEP50 protein complex, sequence (Q9BQA1 whole entry partner): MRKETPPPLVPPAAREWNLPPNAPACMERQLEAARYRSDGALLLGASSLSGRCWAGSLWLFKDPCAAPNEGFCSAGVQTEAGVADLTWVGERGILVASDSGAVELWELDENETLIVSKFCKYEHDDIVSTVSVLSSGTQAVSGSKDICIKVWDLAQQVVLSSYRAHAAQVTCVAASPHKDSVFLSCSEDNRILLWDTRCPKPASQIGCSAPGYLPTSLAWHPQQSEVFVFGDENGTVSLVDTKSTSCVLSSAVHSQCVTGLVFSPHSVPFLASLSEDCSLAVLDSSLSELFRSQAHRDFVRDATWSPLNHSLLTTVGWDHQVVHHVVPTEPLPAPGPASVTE
Method in brief: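 Human PRMT5/MEP50 complex (10 nM) methylating H4(1-21) peptide (200 nM) with 3H/unlabelled SAM (1 uM final) in pH 8.5 Tris buffer, 25 min at room temperature. Stopped with TCA, 3H-peptide captured on filter plates and scintillation-counted. IC50 from 4-parameter fit.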

Row | Structure (SMILES) | IC50 ([1]; Homo sapiens, A549, 168 h) | IC50 [2] | IC50 [1]
1 | Cc1ncnc2c1ccn2[C@@H]1C[C@H](Oc2cc(C(F)F)cc3c2CNCC3)[C@@H](O)[C@H]1O [Example 154, (1S,2S,3S,5R)-3-((6-(difluoromethyl)-1,2,3,4-tetrahydroisoquinolin-8-yl)oxy)-5-(4-methyl-7H-pyrrolo[2,3-d]pyrimidin-7-yl)cyclopentane-1,2-diol] | 2 nM | 1 nM | –
2 | Cc1ncnc2c1ccn2C1C[C@H](Oc2cccc3ccncc23)[C@@H](O)[C@H]1O (stereo partly drawn) [Example 77, (1S,2S,3S,5R)-3-(isoquinolin-8-yloxy)-5-(4-methyl-7H-pyrrolo[2,3-d]pyrimidin-7-yl)cyclopentane-1,2-diol] | 1120 nM | 65 nM | –
3 | Cc1ncnc2c1ccn2[C@@H]1C[C@H](Oc2cccc3c2CNC[C@H](C)O3)[C@@H](O)[C@H]1O [Example 210, (1S,2S,3S,5R)-3-(((S)-2-methyl-2,3,4,5-tetrahydrobenzo[f][1,4]oxazepin-6-yl)oxy)-5-(4-methyl-7H-pyrrolo[2,3-d]pyrimidin-7-yl)cyclopentane-1,2-diol] | 1550 nM | 1 nM | –
4 | Cc1cc2c(c(O[C@H]3C[C@@H](n4cc(F)c5c(N)ncnc54)[C@H](O)[C@@H]3O)c1)CNCC2 [Example 105, (1S,2S,3R,5S)-3-(4-amino-5-fluoro-7H-pyrrolo[2,3-d]pyrimidin-7-yl)-5-((6-methyl-1,2,3,4-tetrahydroisoquinolin-8-yl)oxy)cyclopentane-1,2-diol] | 383 nM | 1 nM | –
5 | Cc1ncnc2c1ccn2[C@@H]1C[C@H](Oc2ccc(Cl)c3c2CNCC3)[C@@H](O)[C@H]1O [Example 86, (1S,2S,3S,5R)-3-((5-chloro-1,2,3,4-tetrahydroisoquinolin-8-yl)oxy)-5-(4-methyl-7H-pyrrolo[2,3-d]pyrimidin-7-yl)cyclopentane-1,2-diol] | 1840 nM | 4 nM | –
6 | Cc1ncnc2c1ccn2[C@@H]1C[C@H](Oc2cc(-c3cnoc3)cc3c2CNCC3)[C@@H](O)[C@H]1O [Example 197, (1S,2S,3S,5R)-3-((6-(isoxazol-4-yl)-1,2,3,4-tetrahydroisoquinolin-8-yl)oxy)-5-(4-methyl-7H-pyrrolo[2,3-d]pyrimidin-7-yl)cyclopentane-1,2-diol] | 3460 nM | 1 nM | –
7 | Cc1ncnc2c1c(F)cn2[C@@H]1C[C@H](Oc2cc(F)c(F)c3c2CNCC3)[C@@H](O)[C@H]1O [Example 177, (1S,2S,3S,5R)-3-((5,6-difluoro-1,2,3,4-tetrahydroisoquinolin-8-yl)oxy)-5-(5-fluoro-4-methyl-7H-pyrrolo[2,3-d]pyrimidin-7-yl)cyclopentane-1,2-diol] | 2370 nM | 4 nM | –
8 | Cc1ncnc2c1ccn2[C@@H]1C[C@H](Oc2cc(Cl)cc3c2CNCCO3)[C@@H](O)[C@H]1O [Example 204, (1S,2S,3S,5R)-3-((8-chloro-2,3,4,5-tetrahydrobenzo[f][1,4]oxazepin-6-yl)oxy)-5-(4-methyl-7H-pyrrolo[2,3-d]pyrimidin-7-yl)cyclopentane-1,2-diol] | 720 nM | 2 nM | –
9 | Cc1ncc2c(F)cn([C@@H]3C[C@H](Oc4cc(C#N)cc5c4CNCC5)[C@@H](O)[C@H]3O)c2n1 [Example 173, 8-(((1S,2S,3S,4R)-4-(5-fluoro-2-methyl-7H-pyrrolo[2,3-d]pyrimidin-7-yl)-2,3-dihydroxycyclopentyl)oxy)-1,2,3,4-tetrahydroisoquinoline-6-carbonitrile] | 3570 nM | 3 nM | –
10 | Cc1ncnc2c1ccn2[C@@H]1C[C@H](Oc2ccc(Cl)c(F)c2CN)[C@@H](O)[C@H]1O [Example 143, (1S,2S,3S,5R)-3-(2-(aminomethyl)-4-chloro-3-fluorophenoxy)-5-(4-methyl-7H-pyrrolo[2,3-d]pyrimidin-7-yl)cyclopentane-1,2-diol] | 1400 nM | 6 nM | –
11 | Cc1ncnc2c1ccn2[C@@H]1C[C@H](Oc2cc(C(F)F)c(F)c3c2CNCC3C)[C@@H](O)[C@H]1O (stereo partly drawn) [Example 211, (1S,2S,3S,5R)-3-((6-(difluoromethyl)-5-fluoro-4-methyl-1,2,3,4-tetrahydroisoquinolin-8-yl)oxy)-5-(4-methyl-7H-pyrrolo[2,3-d]pyrimidin-7-yl)cyclopentane-1,2-diol] | – | 1 nM | 14 nM
12 | Cc1ncnc2c1ccn2[C@@H]1C[C@H](Oc2cccc3c2CNC(C)C3)[C@@H](O)[C@H]1O (single isomer, unassigned) [Example 184] | 1400 nM | 1 nM | –
13 | Cc1ncnc2c1c(F)cn2[C@@H]1C[C@H](Oc2cc(Cl)cc3c2CNCC3)[C@@H](O)[C@H]1O [Example 176, (1S,2S,3S,5R)-3-((6-chloro-1,2,3,4-tetrahydroisoquinolin-8-yl)oxy)-5-(5-fluoro-4-methyl-7H-pyrrolo[2,3-d]pyrimidin-7-yl)cyclopentane-1,2-diol] | 1560 nM | 2 nM | –
14 | Cc1ncnc2c1ccn2[C@@H]1C[C@H](Oc2cncc3c2CNCC3)[C@@H](O)[C@H]1O [Example 95, (1S,2S,3R,5S)-3-(4-methyl-7H-pyrrolo[2,3-d]pyrimidin-7-yl)-5-((5,6,7,8-tetrahydro-2,6-naphthyridin-4-yl)oxy)cyclopentane-1,2-diol] | 8130 nM | 6 nM | –
15 | Cc1ncnc2c1ccn2[C@@H]1C[C@H](Oc2cccc3c2CNCC3)[C@@H](O)[C@H]1O [Example 78, (1S,2S,3R,5S)-3-(4-methyl-7H-pyrrolo[2,3-d]pyrimidin-7-yl)-5-((1,2,3,4-tetrahydroisoquinolin-8-yl)oxy)cyclopentane-1,2-diol] | 1620 nM | 1 nM | –
16 | COc1nc(O[C@H]2C[C@@H](n3ccc4c(C)ncnc43)[C@H](O)[C@@H]2O)c2c(c1F)CCNC2 [Example 191, (1S,2S,3S,5R)-3-((4-fluoro-3-methoxy-5,6,7,8-tetrahydro-2,7-naphthyridin-1-yl)oxy)-5-(4-methyl-7H-pyrrolo[2,3-d]pyrimidin-7-yl)cyclopentane-1,2-diol] | 7020 nM | 1 nM | –
17 | Cc1ncnc2c1ccn2[C@@H]1C[C@H](Oc2cc(-c3cn[nH]c3)cc3c2CNCC3)[C@@H](O)[C@H]1O [Example 165, (1S,2S,3S,5R)-3-((6-(1H-pyrazol-4-yl)-1,2,3,4-tetrahydroisoquinolin-8-yl)oxy)-5-(4-methyl-7H-pyrrolo[2,3-d]pyrimidin-7-yl)cyclopentane-1,2-diol] | 766 nM | 2 nM | –
18 | Cc1ncnc2c1ccn2[C@@H]1C[C@H](Oc2cccc3c2CN[C@@H](C)CO3)[C@@H](O)[C@H]1O [Example 207, (1S,2S,3S,5R)-3-(((S)-3-methyl-2,3,4,5-tetrahydrobenzo[f][1,4]oxazepin-6-yl)oxy)-5-(4-methyl-7H-pyrrolo[2,3-d]pyrimidin-7-yl)cyclopentane-1,2-diol] | 1480 nM | 24 nM | –
19 | Nc1ncnc2c1c(F)cn2[C@@H]1C[C@H](Oc2cc(C(F)F)cc3c2CNCC3)[C@@H](O)[C@H]1O [Example 195, (1S,2S,3R,5S)-3-(4-amino-5-fluoro-7H-pyrrolo[2,3-d]pyrimidin-7-yl)-5-((6-(difluoromethyl)-1,2,3,4-tetrahydroisoquinolin-8-yl)oxy)cyclopentane-1,2-diol] | 22 nM | 1 nM | –
20 | Cc1ncnc2c1ccn2[C@@H]1C[C@H](Oc2cc(C#N)cc3c2CNCCO3)[C@@H](O)[C@H]1O [Example 202, 6-(((1S,2S,3S,4R)-2,3-dihydroxy-4-(4-methyl-7H-pyrrolo[2,3-d]pyrimidin-7-yl)cyclopentyl)oxy)-2,3,4,5-tetrahydrobenzo[f][1,4]oxazepine-8-carbonitrile] | 1760 nM | 1 nM | –
21 | Cc1ncnc2c1ccn2[C@@H]1C[C@H](Oc2cc(Br)c(F)c3c2CNCC3)[C@@H](O)[C@H]1O [Example 94, (1S,2S,3S,5R)-3-((6-bromo-5-fluoro-1,2,3,4-tetrahydroisoquinolin-8-yl)oxy)-5-(4-methyl-7H-pyrrolo[2,3-d]pyrimidin-7-yl)cyclopentane-1,2-diol] | 115 nM | 1 nM | –
22 | Cc1ncc2c(F)cn([C@@H]3C[C@H](Oc4cc(Cl)cc5c4CNCC5)[C@@H](O)[C@H]3O)c2n1 [Example 175, (1S,2S,3S,5R)-3-((6-chloro-1,2,3,4-tetrahydroisoquinolin-8-yl)oxy)-5-(5-fluoro-2-methyl-7H-pyrrolo[2,3-d]pyrimidin-7-yl)cyclopentane-1,2-diol] | 3230 nM | 5 nM | –
23 | Cc1ncnc2c1ccn2[C@@H]1C[C@H](Cc2ccc(Cl)cc2CN)[C@@H](O)[C@H]1O [Example 55, (1S,2R,3S,5R)-3-(2-(aminomethyl)-4-chlorobenzyl)-5-(4-methyl-7H-pyrrolo[2,3-d]pyrimidin-7-yl)cyclopentane-1,2-diol] | 3170 nM | 2 nM | –
24 | Cc1cc2c(c(O[C@H]3C[C@@H](n4ccc5c(C)ncnc54)[C@H](O)[C@@H]3O)c1)CNCC2 [Example 88, (1S,2S,3R,5S)-3-(4-methyl-7H-pyrrolo[2;3-d]pyrimidin-7-yl)-5-[(6-methyl-1,2,3,4-tetrahydroisoquinolin-8-yl)oxy]cyclopentane-1,2-diol] | 545 nM | 1 nM | –

Reference: US10709709B2, “Substituted carbonucleoside derivatives useful as anticancer agents” (Pfizer Inc., priority 2016, dated 2020)
